Data as given in patent US20260138961A1, “MODULATORS OF MITOCHONDRIAL DNA REPLICATION” (Pretzel Therapeutics, Inc., priority 2022, published 2026).

What follows are compounds tested against T1, POLγA:A467T (Homo sapiens, UniProt P54098, A467T) (assay: DNA polymerization assay, POLγA:A467T mutant). Details: A467T AC50, stimulation of polymerase activity, primed M13mp18 ssDNA, 37° C. 2 hours.
T1 sequence (P54098 1-1239 A467T): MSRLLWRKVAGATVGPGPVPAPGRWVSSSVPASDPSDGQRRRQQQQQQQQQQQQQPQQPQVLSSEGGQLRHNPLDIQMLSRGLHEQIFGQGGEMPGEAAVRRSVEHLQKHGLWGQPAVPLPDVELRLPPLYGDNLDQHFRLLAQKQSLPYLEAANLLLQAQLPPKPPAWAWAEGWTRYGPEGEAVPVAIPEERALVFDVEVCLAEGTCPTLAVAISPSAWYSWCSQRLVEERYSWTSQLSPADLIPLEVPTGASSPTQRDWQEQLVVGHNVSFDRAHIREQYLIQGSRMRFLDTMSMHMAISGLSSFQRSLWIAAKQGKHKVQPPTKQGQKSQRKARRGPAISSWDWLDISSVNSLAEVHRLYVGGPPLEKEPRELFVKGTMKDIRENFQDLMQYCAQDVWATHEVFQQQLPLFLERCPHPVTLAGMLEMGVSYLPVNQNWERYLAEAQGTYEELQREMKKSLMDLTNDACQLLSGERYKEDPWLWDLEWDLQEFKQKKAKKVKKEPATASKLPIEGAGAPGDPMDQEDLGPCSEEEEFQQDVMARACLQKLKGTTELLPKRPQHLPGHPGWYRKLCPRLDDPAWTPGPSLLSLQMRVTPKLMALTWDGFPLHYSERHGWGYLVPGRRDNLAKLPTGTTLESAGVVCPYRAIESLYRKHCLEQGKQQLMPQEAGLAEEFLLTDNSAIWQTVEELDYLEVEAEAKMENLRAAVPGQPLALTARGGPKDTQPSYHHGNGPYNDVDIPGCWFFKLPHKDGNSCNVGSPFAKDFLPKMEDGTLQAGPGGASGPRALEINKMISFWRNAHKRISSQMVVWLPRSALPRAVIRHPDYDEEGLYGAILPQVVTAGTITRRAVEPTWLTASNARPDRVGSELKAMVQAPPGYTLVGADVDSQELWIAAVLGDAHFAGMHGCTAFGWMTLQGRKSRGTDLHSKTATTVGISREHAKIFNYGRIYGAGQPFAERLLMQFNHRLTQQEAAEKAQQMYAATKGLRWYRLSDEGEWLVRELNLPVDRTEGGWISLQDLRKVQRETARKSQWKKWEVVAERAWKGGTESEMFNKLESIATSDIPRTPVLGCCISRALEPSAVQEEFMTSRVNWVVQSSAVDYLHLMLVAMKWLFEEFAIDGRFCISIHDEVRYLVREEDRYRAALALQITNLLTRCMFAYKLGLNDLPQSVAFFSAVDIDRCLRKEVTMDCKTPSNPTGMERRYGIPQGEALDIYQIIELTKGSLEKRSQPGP
T1 sequence (Q9UHN1 1-485 partner): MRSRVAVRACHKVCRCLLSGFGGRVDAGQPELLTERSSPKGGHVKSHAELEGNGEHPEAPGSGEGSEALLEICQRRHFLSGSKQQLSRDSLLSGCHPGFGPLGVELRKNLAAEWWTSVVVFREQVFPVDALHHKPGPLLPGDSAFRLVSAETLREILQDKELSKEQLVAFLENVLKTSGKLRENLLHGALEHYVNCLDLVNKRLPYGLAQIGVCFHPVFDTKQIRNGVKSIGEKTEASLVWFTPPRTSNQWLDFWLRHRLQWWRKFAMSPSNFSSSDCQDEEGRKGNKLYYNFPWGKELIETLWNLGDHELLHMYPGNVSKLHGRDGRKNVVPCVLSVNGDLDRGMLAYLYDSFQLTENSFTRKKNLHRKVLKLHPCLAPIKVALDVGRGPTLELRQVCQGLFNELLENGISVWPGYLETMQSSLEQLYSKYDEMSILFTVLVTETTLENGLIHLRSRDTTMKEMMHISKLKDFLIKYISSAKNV
Type: biochemical
Method: DNA Polymerization Assay to Monitor Effects on Human Wildtype POLγ and Four Disease-Causing Mutant Variants of Human POLγ.
The ability of small molecules to stimulate the polymerase activity of POLγ was analyzed in a quantitative fluorescence SYBR Green I assay with fluorescence intensity (FI) readout.
In the presence of dNTPs, wild type human POLγ and mutant derivatives thereof were incubated with single-stranded, circular M13mp18 ssDNA hybridized to a short DNA oligonucleotide that functions as a primer for initiation of DNA synthesis. POLγ and mutant derivatives thereof will extend the primer and use the M13mp18 molecule as a template to synthesize long stretches of double-stranded DNA. SYBR Green I, which is a double-stranded DNA-binding dye, was used to quantify formation of double-stranded DNA in the reaction. When bound to double-stranded DNA, SYBR Green I fluorescence increases by up to 100-fold.
The assay was performed in the 384-well plate format. Upon addition of compounds, changes in double-stranded DNA synthesis activity can be monitored by following effects on fluorescent intensity.
The reactions also contained the accessory POLγB subunit, and the human mitochondrial single-stranded DNA binding protein (mtSSB).
The DNA template mixture used in the assay contained 0.5 nM primed M13 mp18 ssDNA, 400 nM mtSSB, 0.1 mM Tris-HCl (pH 8.0), 0.1 mM dNTP, 10 mM MgCl2, 0.1 mg/mL BSA, 1 mM TCEP solution, and 0.02% Triton X-100. The DNA template mixture for the wild type protein contained either 100 μM dNTP, 1 μM dNTP, or 0.1 μM dNTP, designated in Table 2 as 100 μM, 1 μM, and 0.1 μM, respectfully.
Microplates with compounds (0.1 μL in each well) to be tested in the assay were prepared from 10 mM compound stocks in 100% DMSO, and equal amounts of DMSO without any compound were added to positive and negative control wells.
The protein mixture was dispensed (5 μL into each well) into compound plates and incubated at 37° C. for 15 minutes. After incubation, 5 μL of the DNA template mixture was dispensed into each well. The plates were then incubated at 37° C. for 2 hours.
During incubation, a combined stop buffer and detection reagent solution was prepared. The buffer contained 25 mM EDTA (pH 8.0), 0.02% Triton X-100, and SYBR Green I [Invitrogen] diluted 10,000× (for fluorescent readout). EDTA will stop the enzymatic reaction by chelating magnesium ions.

Row | AC50 [µM] | Compound
1 | > 100 | Cc1cc(S(=O)(=O)Nc2noc(-c3ccccc3)n2)c(C)cc1Cl [Example 142, 4-chloro-2,5-dimethyl-N-(5-phenyl-1,2,4-oxadiazol-3-yl)benzenesulfonamide]

Same assay, conditions: stimulation of polymerase activity, primed M13mp18 ssDNA, 37° C. 2 hours; read-out: A467T AC50

Row | AC50 [µM] | Compound
2 | > 100 | Cc1cc(S(=O)(=O)Nc2cccc(C(=O)N(C)c3ccccn3)c2)c(C)cc1Cl [Example 109, 3-((4-chloro-2,5-dimethylphenyl)sulfonamido)-N-methyl-N-(pyridin-2-yl)benzamide]
3 | > 100 | Cc1cc(S(=O)(=O)Nc2cccc(C(=O)N3CCC[C@H]3CO)c2)c(C)cc1Cl [Example 145, (S)-4-chloro-N-(3-(2-(hydroxymethyl)pyrrolidine-1-carbonyl)phenyl)-2,5-dimethylbenzenesulfonamide]
4 | > 100 | Cc1cc(S(=O)(=O)Nc2cccc(C(=O)N3CCCOC(C)(C)C3)c2)c(C)cc1Cl [Example 106, 4-chloro-N-(3-(2,2-dimethyl-1,4-oxazepane-4-carbonyl)phenyl)-2,5-dimethylbenzenesulfonamide]
5 | > 100 | Cc1cc(NS(=O)(=O)c2cc(C)c(Cl)cc2C)cc(-c2ncc(C)s2)c1 [Example 110, 4-chloro-2,5-dimethyl-N-(3-methyl-5-(5-methylthiazol-2-yl)phenyl)benzenesulfonamide]
6 | 45 | Cc1cc(S(=O)(=O)Nc2cccc(C(=O)N(C)C)c2)c(C)cc1Cl [Example 12, 3-((4-chloro-2,5-dimethylphenyl)sulfonamido)-N,N-dimethylbenzamide]
7 | 55 | Cc1cc(S(=O)(=O)Nc2ccc3c(c2)CC(=O)N3)c(C)cc1Cl [Example 185, 4-chloro-2,5-dimethyl-N-(2-oxoindolin-5-yl)benzenesulfonamide]
8 | > 100 | Cc1cc(S(=O)(=O)N[C@@H]2CCCN(C(=O)[C@@H]3CCCN3C)C2)c(C)cc1Cl [Example 104, 4-chloro-2,5-dimethyl-N-((R)-1-(methyl-L-prolyl)piperidin-3-yl)benzenesulfonamide]
9 | 33 | Cc1cc(S(=O)(=O)Nc2cc(F)cc(C(=O)N3CCC[C@H]3C)c2)c(C)cc1Cl [Example 13, (R)-4-chloro-N-(3-fluoro-5-(2-methylpyrrolidine-1-carbonyl)phenyl)-2,5-dimethylbenzenesulfonamide]
10 | > 100 | Cc1cc(S(=O)(=O)Nc2cccc(-c3ncc(C(=O)N(C)C)s3)c2)c(C)cc1Cl [Example 94, 2-(3-((4-chloro-2,5-dimethylphenyl)sulfonamido)phenyl)-N,N-dimethylthiazole-5-carboxamide]
11 | > 100 | Cc1cc(S(=O)(=O)Nc2cccc(C(=O)N(CC(N)=O)C3CCCC3)c2)c(C)cc1Cl [Example 113, N-(2-amino-2-oxoethyl)-3-((4-chloro-2,5-dimethylphenyl)sulfonamido)-N-cyclopentylbenzamide]
12 | 28 | Cc1cc(S(=O)(=O)Nc2cccc(C(=O)N3CCc4cn[nH]c4C3)c2)c(C)cc1Cl [Example 107, 4-chloro-2,5-dimethyl-N-(3-(4,5,6,7-tetrahydro-1H-pyrazolo[3,4-c]pyridine-6-carbonyl)phenyl)benzenesulfonamide]

More lines, now with the values behind:

Row | Compound | AC50 [µM]
13 | Cc1ccc(C)c(S(=O)(=O)Nc2cccc(C(=O)N3CCCCC3)c2)c1 [Example 3, 2,5-dimethyl-N-(3-(piperidine-1-carbonyl)phenyl)benzene sulfonamide] | 48
14 | Cc1ccc(C)c(S(=O)(=O)Nc2cccc(C(=O)NCC3CC3)c2)c1 [Example 4, N-(cyclopropylmethyl)-3-((2,5-dimethylphenyl)sulfonamido)benzamide] | 52
15 | O=S(=O)(Nc1csc(-c2ccccc2)n1)c1ccc(F)c(F)c1 [Example 122, 3,4-difluoro-N-(2-phenylthiazol-4-yl)benzenesulfonamide] | > 100
16 | Cc1cnc(-c2cc(NS(=O)(=O)c3cc(C)c(Cl)cc3C)ccc2Cl)s1 [Example 111, 4-chloro-N-(4-chloro-3-(5-methylthiazol-2-yl)phenyl)-2,5-dimethylbenzenesulfonamide] | > 100
17 | O=S(=O)(Nc1csc(-c2ccccc2)n1)c1ccc2ncsc2c1 [Example 137, N-(2-phenylthiazol-4-yl)benzo[d]thiazole-6-sulfonamide] | > 100
18 | O=S(=O)(Nc1csc(-c2ccccc2)n1)c1ccc(C(F)(F)F)cc1F [Example 141, 2-fluoro-N-(2-phenylthiazol-4-yl)-4-(trifluoromethyl)benzenesulfonamide] | > 100
19 | Cc1cc(S(=O)(=O)N[C@H]2CCCN(C(=O)N3CCCC3)C2)c(C)cc1Cl [Example 130, (S)-4-chloro-2,5-dimethyl-N-(1-(pyrrolidinee-1-carbonyl)piperidin-3-yl)benzenesulfonamide] | > 100
20 | Cc1ccc(C)c(S(=O)(=O)Nc2cccc(C(=O)N[C@@H](C)C3CC3)c2)c1 [Example 8, (S)-N-(1-cyclopropylethyl)-3-((2,5-dimethylphenyl)sulfonamido)benzamide] | 39
21 | Cc1cc(S(=O)(=O)N[C@@H]2CCCN(C(=O)N3CCCC3)C2)c(C)cc1Cl [Example 153, (R)-4-chloro-2,5-dimethyl-N-(1-(pyrrolidine-1-carbonyl)piperidin-3-yl)benzenesulfonamide] | > 100
22 | Cc1cc(S(=O)(=O)Nc2csc(-c3ccccc3)n2)c(F)cc1Cl [Example 146, 4-chloro-2-fluoro-5-methyl-N-(2-phenylthiazol-4-yl)benzenesulfonamide] | > 100
23 | (R)-2,5-dimethyl-N-(3-(3-methylmorpholine-4-carbonyl)phenyl)benzenesulfonamide [Example 1] | 44
24 | Cc1ccc(C)c(S(=O)(=O)Nc2cccc(C(=O)N3CCOCC3C#N)c2)c1 (stereo not drawn) [Example 7, N-(3-(3-cyanomorpholine-4-carbonyl)phenyl)-2,5-dimethylbenzenesulfonamide] | 37
